pIC50, pKi: −log10 of the molar value. Read-outs that look alike come from different tables or passages of the source.
Legend:
[1] = cited from earlier work
[2] = cited from earlier work; remark: listed apart in the source
[3] = in vivo; cited from earlier work
[4] = target: T1, human cannabis CB1 receptor (Homo sapiens, UniProt P21554); test: In vitro affinity for cannabinoid CB1 receptors, [3H]CP-55,940 radioligand, CHO cell membrane preparations; format: binding; conditions: for Ki: Human cannabinoid-CB1 receptors, read-out: In vitro affinity pK1 value (converted)
T1 construct: expressed in transfected cells; host or cells: Chinese hamster ovary (CHO) cells, stably transfected; membrane preparation
T1 sequence (P21554 whole entry): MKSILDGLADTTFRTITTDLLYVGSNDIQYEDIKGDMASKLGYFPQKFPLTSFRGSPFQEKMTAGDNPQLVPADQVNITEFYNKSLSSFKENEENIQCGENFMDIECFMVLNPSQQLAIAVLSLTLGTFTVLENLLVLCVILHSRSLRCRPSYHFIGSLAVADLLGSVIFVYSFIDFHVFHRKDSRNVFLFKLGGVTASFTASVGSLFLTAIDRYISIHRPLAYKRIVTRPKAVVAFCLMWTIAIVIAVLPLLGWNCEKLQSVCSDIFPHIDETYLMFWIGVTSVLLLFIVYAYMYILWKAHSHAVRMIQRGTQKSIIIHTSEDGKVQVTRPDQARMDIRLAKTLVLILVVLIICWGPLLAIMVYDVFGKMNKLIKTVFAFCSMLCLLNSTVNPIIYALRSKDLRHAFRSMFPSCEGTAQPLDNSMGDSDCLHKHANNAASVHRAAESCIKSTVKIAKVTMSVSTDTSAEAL
Protocol: After incubation of a freshly prepared cell membrane preparation with the [3H]-ligand, with or without addition of compounds of the invention, separation of bound and free ligand was performed by filtration over glass fibre filters. Radioactivity on the filter was measured by liquid scintillation counting.

[5] = target: T2, human cannabinoid CB1 receptors (Homo sapiens, UniProt P21554); test: In vitro CB1 antagonism, functional studies in CHO cells expressing human CB1 receptor; format: cell-based
T2 construct: expressed in transfected cells
T2 sequence (P21554 whole entry): as above
Protocol: The cannabinoid CB1 antagonistic activity of compounds of the formulas (I), (II), III), (IV) or (V) is also described in the WO 03/026647, WO 03/027076, WO 03/026648 or WO 03/078413, and was determined by functional studies using CHO cells in which human cannabinoid CB1 receptors are stably expressed. Adenylyl cyclase was stimulated using forskolin and measured by quantifying the amount of accumulated cyclic AMP. Concomitant activation of CB1 receptors by CB1 receptor agonists (e.g. CP-55,940 or (R)-WIN-55,212-2) can attenuate the forskolin-induced accumulation of cAMP in a concentration-dependent manner. This CB1 receptor-mediated response can be antagonized by CB1 receptor antagonists such as the compounds used in the present invention.
The cannabinoid CB1 receptor antagonistic, agonistic or partial agonistic activity of compounds e.g. formula (V) of the invention can be also determined by functional studies using the human CB1 receptor cloned in Chinese hamster ovary (CHO) cells according to the following protocol. CHO cells were grown in a DMEM culture medium, supplemented with 10% heat-inactivated fetal calf serum. Medium was aspirated and replaced by DMEM, without fetal calf serum, but containing [^3H]-Arachidonic acid and incubated overnight in a cell culture stove (5% CO2/95% air; 37° C.; water-saturated atmosphere). During this period [^3H]-Arachidonic acid was incorporated in membrane phospholipids. On the test day, medium was aspirated and cells were washed three times using 0.5 ml phosphate-buffered saline, containing 0.2% bovine serum albumin. Stimulation of the CB1 receptor by WIN 55,212-2 led to activation of PLA2 followed by release of [^3H]-Arachidonic acid into the medium. This WIN 55,212-2-induced release was concentration-dependently antagonized by CB1 receptor antagonists.

plasma lipases = conditions: cited from earlier work; for pIC50: read-out: IC50 for inhibition of plasma lipases
[6] = test system: bacterial and fungal lipases; conditions: cited from earlier work
[7] = target: T3, porcine pancreatic lipase (Sus scrofa, UniProt P00591); conditions: cited from earlier work; for inhibitory activity, fold stronger than that of THL: porcine pancreatic lipase, relative to THL; for pIC50: read-out: IC50 for inhibition of hydrolysis of triolein by porcine pancreatic lipase
T3 sequence (P00591 1-450): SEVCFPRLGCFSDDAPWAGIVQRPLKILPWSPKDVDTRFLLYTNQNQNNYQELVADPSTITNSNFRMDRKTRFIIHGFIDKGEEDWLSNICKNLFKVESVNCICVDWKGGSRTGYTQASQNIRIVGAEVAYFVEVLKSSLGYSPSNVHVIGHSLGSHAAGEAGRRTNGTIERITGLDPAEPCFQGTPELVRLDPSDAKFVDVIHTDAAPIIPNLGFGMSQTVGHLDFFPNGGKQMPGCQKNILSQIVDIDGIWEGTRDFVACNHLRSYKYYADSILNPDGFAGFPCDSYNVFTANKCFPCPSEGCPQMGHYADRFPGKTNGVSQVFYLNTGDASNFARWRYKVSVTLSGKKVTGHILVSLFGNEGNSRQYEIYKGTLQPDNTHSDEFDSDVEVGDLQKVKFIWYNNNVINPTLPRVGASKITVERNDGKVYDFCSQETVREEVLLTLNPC

[8] = patients on atypical antipsychotics; cited from earlier work
DTH response = conditions: mice, 0.781-50 mg/kg (i.p.) or 0.5 mg/kg (per os); cited from earlier work
[9] = test system: carragheenin-induced swelling; conditions: mice; cited from earlier work
[10] = treatment groups 60, 120 and 240 mg

O=C(NN1CCOCC1)c1nc(-c2ccc(Cl)cc2)n(-c2ccc(Cl)cc2Cl)n1 [Example 6, 5-(4-Chlorophenyl)-1-(2,4-dichlorophenyl)-N-(morpholin-4-yl)-1H-1,2,4-triazole-3-carboxamide]
melting point: 184 to 186 °C

CCCCCCCCCCCCCCCCOc1nc2ccc(C)cc2c(=O)o1 [ATL-962, 2-hexadecyloxy-6-methyl-4H-3,1-benzoxazin-4-one]
subjects with a 3-fold or greater increase in fat excretion compared to placebo ([1]; 50 mg to 300 mg): 55%
subjects with a 7-fold or greater increase in fat excretion compared to placebo ([1]; 50 mg to 300 mg): 27%
safety and tolerability ([1]; phase Ib, healthy male volunteers): safe and well tolerated
weight compared to placebo ([2]; 60, 120 and 240 mg, obese patients): significant reduction in weight
safety and tolerability ([2]; phase IIb, obese patients): safe and generally well tolerated
HDL-cholesterol levels [2, 10]: no difference
LDL-cholesterol [2, 10]: decreased
Total cholesterol [2, 10]: decreased
preclinical toxicity [3]: no toxicity was observed

O=C(NC1CCCCC1)c1nc(-c2ccc(Cl)cc2Cl)n(-c2ccc(Cl)cc2)n1 [Example 9, 1-(4-Chlorophenyl)-N-cyclohexyl-5-(2,4-dichlorophenyl)-1H-1,2,4-triazole-3-carboxamide]
Ki [4]: 0.0398 µM
Kb [5]: 0.00631 µM

CC(C)(C)ONC(=O)c1nc(-c2ccc(Cl)cc2)n(-c2ccc(Cl)cc2Cl)n1
melting point: 150 to 152 °C

CCCCCCCCCCCC[C@@H]1C(=O)O[C@H]1C[C@H](CCCCCCC)OC(=O)CNC=O [Panclicin E]
pIC50 (plasma lipases): 6.82
inhibition of bacterial and fungal lipases [6]: profiles similar to those for porcine pancreatic lipase
irreversibility of pancreatic lipase inhibition [7]: irreversibly inhibit pancreatic lipase
inhibitory activity, fold stronger than that of THL [7]: 2 fold
pIC50 [7]: 6.05

CCCCCCCCCC[C@@H]1C(=O)O[C@H]1C[C@H](CCCCCCC)OC(=O)CNC=O [Panclicin D]
pIC50 (plasma lipases): 6.60
inhibition of bacterial and fungal lipases [6]: profiles similar to those for porcine pancreatic lipase
irreversibility of pancreatic lipase inhibition [7]: irreversibly inhibit pancreatic lipase
inhibitory activity, fold stronger than that of THL [7]: 2 fold
pIC50 [7]: 6.18

CCCCCCCCCCC[C@@H](C[C@@H]1OC(=O)[C@H]1CCCCCC)OC(=O)[C@H](CC(C)C)NC=O [tetrahydrolipstatin, (2S,3S,5S)-5-((S)-2-4-methylvaleryloxy)-2-heyl-3-hydroxy-hexadecanoic acid lactone]
fat excreted, average ([1]; 120 mg tid, 5 days, placebo 1.4 g/day): 5.6 (+1-3.8) g/day

Cl.O=C(NN1CCCC1)c1nc(-c2ccc(Cl)cc2)n(-c2ccc(Cl)cc2Cl)n1 [Example 2, 5-(4-Chlorophenyl)-1-(2,4-dichlorophenyl)-N-(pyrrolidin-1-yl)-1H-1,2,4-triazole-3-carboxamide hydrochloride]
Ki [4]: 0.251 µM
Kb [5]: 0.0631 µM
melting point: 248 to 255 °C (dec.)

O=C(NN1CCCCC1)c1nc(-c2ccc(Cl)cc2Cl)n(-c2ccc(C(F)(F)F)cc2)n1 [Example 14, 5-(2,4-Dichlorophenyl)-N-(piperidin-1-yl)-1-(4-(trifluoromethyl)phenyl)-1H-1,2,4-triazole-3-carboxamide]
melting point: 159 to 161 °C

O=C1Cc2cc(CCN3CCN(c4nsc5ccccc45)CC3)c(Cl)cc2N1 [ziprasidone]
weight change with long-term treatment [8]: smallest

CCCCCCC[C@@H](C[C@@H]1OC(=O)[C@H]1CCCCCCCC(C)C)OC(=O)CNC=O [Panclicin C]
pIC50 (plasma lipases): 6.54
inhibition of bacterial and fungal lipases [6]: profiles similar to those for porcine pancreatic lipase
irreversibility of pancreatic lipase inhibition [7]: irreversibly inhibit pancreatic lipase
inhibitory activity, fold stronger than that of THL [7]: 2 fold
pIC50 [7]: 6.21

CCCCCNC(=O)c1nc(-c2ccc(Cl)cc2Cl)n(-c2ccc(Cl)cc2)n1 [Example 11, 1-(4-Chlorophenyl)-5-(2,4-dichlorophenyl)-N-(n-pentyl)-1H-1,2,4-triazole-3-carboxamide]
pKi [4]: 6.30

OCCOCCN1CCN(C2=Nc3ccccc3Sc3ccccc32)CC1 [quetiapine]
weight change with long-term treatment [8]: smallest

Cl.O=C(NN1CCCC1)c1nc(-c2ccc(Cl)cc2Cl)n(-c2ccc(Cl)cc2)n1
melting point: 234 to 236 °C (dec.)

O=C(NN1CCCCC1)c1nc(-c2cccnc2)n(-c2ccc(Cl)cc2Cl)n1 [Example 16, 1-(2,4-Dichlorophenyl)-N-(piperidin-1-yl)-5-(pyridin-3-yl)-1H-1,2,4-triazole-3-carboxamide]
melting point: 219 °C

Cl.O=C(NN1CCCCC1)c1nc(-c2ccc(Cl)cc2)n(-c2ccc(Cl)cc2Cl)n1
melting point: 238 to 240 °C (dec.)

Cc1cc2c(s1)Nc1ccccc1N=C2N1CCN(C)CC1 [olanzapine]
weight change with long-term treatment [8]: largest weight gains

CC[C@@H](C)[C@@H](O)[C@H](C)C(=O)[C@H](C)/C=C(\C)C[C@H](C)[C@@H]1OC(=O)[C@H]1C [Ebelactone A]
development of DTH response (DTH response): enhances the development of DTH response

CCCCCNC(=O)c1nc(-c2ccc(Cl)cc2)n(-c2ccc(Cl)cc2Cl)n1 [Example 5, 5-(4-Chlorophenyl)-1-(2,4-dichlorophenyl)-N-(n-pentyl)-1H-1,2,4-triazole-3-carboxamide]
pKi [4]: 6.90

CCCCCCC[C@@H](C[C@@H]1OC(=O)[C@H]1CCCCCCCC(C)C)OC(=O)[C@H](C)NC=O [Panclicin A]
pIC50 (plasma lipases): 6.00
potency on plasma lipases compared with THL (plasma lipases; relative to THL): same potency as THL
inhibition of bacterial and fungal lipases [6]: profiles similar to those for porcine pancreatic lipase
irreversibility of pancreatic lipase inhibition [7]: irreversibly inhibit pancreatic lipase
pIC50 [7]: 5.54

Cl.O=C(NN1CCOCC1)c1nc(-c2ccc(Cl)cc2Cl)n(-c2ccc(Cl)cc2)n1
melting point: 224 to 226 °C

Cc1nc2n(c(=O)c1CCN1CCC(c3noc4cc(F)ccc34)CC1)CCCC2 [Risperidone]
weight change with long-term treatment [8]: modest weight changes that are not dose related

O=C(NN1CCCCC1)c1nc(-c2ccccn2)n(-c2ccc(Cl)cc2Cl)n1 [Example 13, 1-(2,4-Dichlorophenyl)-5-(pyridin-2-yl)-N-(piperidin-1-yl)-1H-1,2,4-triazole-3-carboxamide]
melting point: 191 to 193 °C

O=C(NC1CCCCC1)c1nc(-c2ccc(Cl)cc2)n(-c2ccc(Cl)cc2Cl)n1 [Example 3, 5-(4-Chlorophenyl)-N-cyclohexyl-1-(2,4-dichlorophenyl)-1H-1,2,4-triazole-3-carboxamide]
Ki [4]: 0.126 µM
Kb [5]: 0.002 µM
melting point: 186 to 188 °C

CC[C@@H](C)[C@@H](O)[C@H](C)C(=O)[C@H](C)/C=C(\C)C[C@H](C)[C@@H]1OC(=O)[C@H]1CC [Ebelactone B]
carragheenin-induced swelling [9]: reduces carragheenin-induced swelling
development of DTH response (DTH response): enhances the development of DTH response

Reference: US20050124660A1, “Novel medical uses of compounds showing CB1-antagonistic activity and combination treatment involving said compounds” (priority 2003, published 2005)
